{"source": "patent US20230405095A1", "about": "“DOSING REGIMEN” (VIIV HEALTHCARE UK (NO. 7) LIMITED, priority 2022, published 2023)", "origin": "cited, not measured here", "key": {"[1]": {"settings": "after injection of hyaluronidase; cited from earlier work"}, "[2]": {"settings": "in vivo, sc; cited from earlier work"}}, "data": [{"molecule": "hyaluronidase", "values": [{"measurement": "time until permeability barrier is restored to pre-injection levels", "setting": "[1]", "value": "24 to 48", "unit": "h"}]}, {"molecule": "rHuPH20: soluble hyaluronidase composition produced upon expression in a mammalian cell of nucleic acid encoding residues 36-482 of SEQ ID NO:1 (protein, listed as Homo sapiens, precursor human PH20) LNFRAPPVIPNVPFLWAWNAPSEFCLGKFDEPLDMSLFSFIGSPRINATGQGVTIFYVDRLGYYPYIDSITGVTVNGGIPQKISLQDHLDKAKKDITFYMPVDNLGMAVIDWEEWRPTWARNWKPKDVYKNRSIELVQQQNVQLSLTEATEKAKQEFEKAGKDFLVETIKLGKLLRPNHLWGYYLFPDCYNHHYKKPGYNGSCFNVEIKRNDDLSWLWNESTALYPSIYLNTQQSPVAATLYVRNRVREAIRVSKIPDAKSPLPVFAYTRIVFTDQVLKFLSQDELVYTFGETVALGASGIVIWGTLSIMRSMKSCLLLDNYMETILNPYIINVTLAAKMCSQVLCQEQGVCIRKNWNSSDYLHLNPDNFAIQLEKGGKFTVRGKPTLEDLEQFSEKFYCSCYSTLSCKEKADVKDTDAVDVCIADGVCIDAFLKPPMETEEPQIFY", "values": [{"measurement": "subcutaneous doses shown to be well tolerated", "setting": "[2]", "value": "up to 96,000 U"}]}]}
